Assay results from patent US4005217A, “Treatment of helminth infections with substituted phenyl-thiourea derivatives” (May & Baker Limited, priority 1970, dated 1977).
Values after ≈ are worked out from the molar mass of the structure shown. Structures can show the parent of a compound that is named as a salt. Where two headings read alike, the source gives them in different places.

Experiments:
[1] = test system: Nippostrongylus brasiliensis; experiment: Test 2: activity against roundworms in rats, treatment 24 hours after infection, worm counts 6 days after dosing; assay type: in vivo; details: rats; for inhibition in vivo at 1000 mg/kg / inhibition in vivo at 250 mg/kg: Nippostrongylus brasiliensis, 144 h, read-out: Percentage reduction in N.brasiliensis load; for inhibition in vivo at 1000 mg/kg / worm damage: Test 2, 1000 mg/kg oral
Procedure: Test 2 -- Rats were infected with 100 Nippostrongylus brasiliensis larvae each, by the subcutaneous route. After 24 hours the rats were randomised and allotted to groups of 5 animals each, ready for treatment. Doses of the test compound were then administered to each group by the oral, subcutaneous and intraperitoneal routes respectively, one group of 10 animals being left untreated as a control. All the rats were killed for post-mortem worm counts 6 days after dosing. The activities, expressed in terms of the percentage reductions in mean worm load of the treated groups or damage to the worms compared with the untreated control group, are given below in Table I.

[2] = test system: Nippostrongylus brasiliensis; experiment: Test 1: activity against roundworms in rats, treatment 6 days after infection (patent infection), worm counts 48 hours after treatment; assay type: in vivo; details: Nippostrongylus brasiliensis, po, 48 h, Test 1, 1000 mg/kg oral, read-out: Percentage reduction in N.brasiliensis load
Procedure: Test 1 - Rats were infected with 100 Nippostrongylus brasiliensis larvae each, by the subcutaneous route. After 6 days, when the infection was patent, the rats were randomised and alloted to groups of 10 animals each, ready for treatment. One group was used for each dose level of the test compound and, in each experiment, one group was left untreated as a control. All the rats were killed for post-mortem worm counts 48 hours after treatment. The activity, expressed in terms of the percentage reduction in mean worm load of the treated group compared with the untreated group, is shown in Table I.

[3] = test system: Nippostrongylus brasiliensis eggs; experiment: In vitro activity against roundworms (egg hatching and larvae); assay type: cell-based; details: 96 h, tested at 100, 10, 1 and 0.1 μg/ml, inhibited or delayed hatching of eggs, or killed, retarded growth or reduced activity of larvae during 4 days, read-out: M.I.C. (minimum inhibitory concentration)
Procedure: Compounds of formula I were tested at concentrations of 100 μg/ml, 10 μg/ml, 1 μg/ml and 0.1 μg/ml in small glass containers. If the compound was not soluble in water, a volatile organic medium, e.g. acetone, chloroform, ethanol or methanol was used. An amount of material appropriate for each final concentration was measured and placed in duplicate test containers and if an organic solvent was used it was allowed to evaporate completely. Nippostrongylus brasiliensis eggs were recovered by saturated saline centrifugal flotation from the faeces of rats heavily infected with third stage larvae six days previously. They were washed several times in water and suspended in water in a suitable concentration. From 25-50 eggs were placed in each container and the final volume was made up by the addition of a very dilute aqueous suspension of mouse faeces which served as the growth medium. The minimum inhibitory concentrations of each compound (M.I.C.), shown in the following Table V was the minimum concentration in μg/ml total liquid volume at which it inhibited or delayed hatching of eggs, or at which it killed, retarded growth or reduced activity of larvae during the 4 days after beginning the test.

[4] = ip, Test 2, 250 mg/kg intraperitoneal
[5] = sc, Test 2, 250 mg/kg subcutaneous

| Compound | inhibition in vivo at 1000 mg/kg [1] [%] | MIC [3] [µg/mL] | other results |
| --- | --- | --- | --- |
| CCOC(=O)NC(=S)Nc1ccccc1NC(=O)C(C)N(C)C (racemic) [1-ethoxycarbonyl-3[2-(1-dimethylaminoethylcarbonylamino)phenyl]thiourea] | 100 |  | inhibition in vivo at 1000 mg/kg [2]: 97% |
| CCOCCOC(=O)NC(=S)Nc1ccccc1N [1-(2-ethoxyethoxycarbonyl)-3-(2-aminophenyl)thiourea] | 90 |  | worm damage [1]: worm damage |
| CCCCOC(=O)NC(=S)Nc1ccccc1N [1-butoxycarbonyl-3-(2-aminophenyl)thiourea] |  | 1 (≈ 3.74 µM) |  |
| CCOC(=O)NC(=S)Nc1ccc(NC(=O)OC(C)C)cc1NC(C)=O [1-ethoxycarbonyl-3-(2-acetamido-4-isopropoxycarbonylaminophenyl)thiourea] | 62 |  |  |
| CCOC(=O)NC(=S)Nc1ccc(Cl)cc1N [1-ethoxycarbonyl-3-(2-amino-4-chlorophenyl)thiourea] |  | 10 (≈ 36.5 µM) |  |
| CCCCc1ccc(NC(=S)NC(=O)OCC)c(N)c1 [1-ethoxycarbonyl-3-(2-amino-4-n-butylphenyl)-thiourea] |  | 1 (≈ 3.39 µM) |  |
| CCCCN(CCCC)CC(=O)Nc1ccccc1NC(=S)NC(=O)OCC [1-ethoxycarbonyl-3-(2-di-n-butylaminoacetamidophenyl)thiourea hydrochloride] | 97 | 0.1 |  |
| CCOC(=O)NC(=S)Nc1cc(NC(=O)OC(C)C)ccc1NC(=O)CN(C)C [1-ethoxycarbonyl-3-(2-dimethylaminoacetamido-5-isopropoxycarbonylaminophenyl)-thiourea hydrochloride] | 100 | 100 | inhibition in vivo at 250 mg/kg [1, 4]: 50%; inhibition in vivo at 250 mg/kg [1, 5]: 60% |
| CCOC(=O)NC(=S)Nc1cc(NC(=O)OC)ccc1NC(=O)CN(C)C [1-ethoxycarbonyl-3-(2-dimethylaminoacetamido-5-methoxycarbonylaminophenyl)thiourea hydrochloride] | 100 |  |  |
| CCOC(=O)NC(=S)Nc1ccccc1NC(=O)CN1CCOCC1 [1-ethoxycarbonyl-3-(2-morpholinoacetamidophenyl)thiourea hydrochloride] | 99 | 0.1 |  |
| CCOC(=O)NC(=S)Nc1ccccc1NC(=O)C[N+](C)(C)C [1-ethoxycarbonyl-3-(2-trimethylammoniumacetamidophenyl)thiourea iodide] | 60 | 0.1 | worm damage [1]: worm damage |
| CCOC(=O)NC(=S)Nc1ccccc1NC(=O)CN1C[C@@H](C)O[C@@H](C)C1 [1-ethoxycarbonyl-3-[2-(2,6-cis-dimethylmorpholinoacetamido)phenyl]thioureahydrochloride] |  | 0.1 | inhibition in vivo at 250 mg/kg [1, 4]: 93%; inhibition in vivo at 250 mg/kg [1, 5]: 95% |
| CCOC(=O)Nc1ccc(NC(=S)NC(=O)OC)c(N)c1 [1-methoxycarbonyl-3-(2-amino-4-ethoxycarbonylaminophenyl)thiourea] | 99 | 10 (≈ 32 µM) |  |
| COC(=O)NC(=S)Nc1ccc(C)cc1N [1-methoxycarbonyl-3-(2-amino-4-methylphenyl)thiourea] | 97 | 100 (≈ 418 µM) | worm damage [1]: worm damage |
| COC(=O)NC(=S)Nc1ccccc1N [1-methoxycarbonyl-3-(2-aminophenyl)thiourea hydrochloride] | 100 |  | inhibition in vivo at 1000 mg/kg [2]: 100% |
| COC(=O)NC(=S)Nc1ccc(C(C)=O)cc1N [1-methoxycarbonyl-3-(4-acetyl-2-aminophenyl)thiourea] | 73 |  | worm damage [1]: worm damage |
| COC(=O)NC(=S)Nc1ccccc1NC(=O)C=CC(=O)O [1-methoxycarbonyl-3-[2-(3-carboxyacrylamido)phenyl]thiourea] | 99 | 1 (≈ 3.09 µM) |  |
